Results on 22 compounds are retold here after PMC6225275 (Molecules : A Journal of Synthetic Chemistry and Natural …, 2018).

What all share (type): biochemical
The target of experiment [1] is T1, paraoxon (POX)-inhibited human recombinant AChE (HssAChE) (Homo sapiens, UniProt P22303).
T1 construct: purchased Sigma-Aldrich
The following applies: for POX-HssAChE Reactivation (% ± SD): pH 7.4.

The target of experiment [2] is T2, methylparaoxon (MePOX)-inhibited human recombinant AChE (HssAChE) (Homo sapiens, UniProt P22303).
T2 construct: purchased Sigma-Aldrich
T2 sequence (P22303 32-614): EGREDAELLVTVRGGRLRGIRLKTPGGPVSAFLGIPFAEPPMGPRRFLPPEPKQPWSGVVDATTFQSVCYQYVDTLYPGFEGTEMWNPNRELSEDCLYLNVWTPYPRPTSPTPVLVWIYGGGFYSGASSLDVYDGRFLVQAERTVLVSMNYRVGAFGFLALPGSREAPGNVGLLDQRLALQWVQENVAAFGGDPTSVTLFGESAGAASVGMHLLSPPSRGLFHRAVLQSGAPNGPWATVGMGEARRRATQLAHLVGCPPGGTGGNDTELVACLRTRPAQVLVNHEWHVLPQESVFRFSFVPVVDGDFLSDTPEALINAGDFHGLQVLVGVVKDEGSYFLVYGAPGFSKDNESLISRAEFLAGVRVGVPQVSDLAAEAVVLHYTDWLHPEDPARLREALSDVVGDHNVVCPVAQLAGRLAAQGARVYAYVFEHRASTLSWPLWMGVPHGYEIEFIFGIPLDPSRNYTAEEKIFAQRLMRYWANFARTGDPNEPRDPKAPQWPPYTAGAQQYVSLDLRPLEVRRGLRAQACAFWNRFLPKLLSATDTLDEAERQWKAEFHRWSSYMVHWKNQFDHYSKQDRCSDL
The following applies: for MePOX-HssAChE Reactivation (% ± SD): pH 7.4.

Experiment [3] addresses T3, diisopropylfluorophosphate (DFP)-inhibited human recombinant AChE (HssAChE) (Homo sapiens, UniProt P22303).
T3 construct: purchased Sigma-Aldrich
The conditions noted are these: pH 7.4.

Where “and” joins values, the source holds several entries; their conditions need not be identical. Equal entries are not always repeated.

T1 sequence (P22303 32-614): as above
T3 sequence (P22303 32-614): as above

On to `C[n+]1ccccc1/C=N/O` [Compound 1, pralidoxime, reference compound], for which, in experiment [1], the “POX reactivation, maximum over both concentrations” value is “up to 11%”; the “POX-HssAChE Reactivation (% ± SD)” value is 10.7 ± 0.3% and 2.1 ± 0.1%. Also, in experiment [2], the “MePOX reactivation, maximum over both concentrations” value is on record as “up to 30%”; the “MePOX-HssAChE Reactivation (% ± SD)” value was 30.2 ± 0.3% and 22.4 ± 0.7%. In addition, in experiment [3], the “DFP-HssAChE Reactivation (% ± SD)” value was 1.3 ± 0.6% and 0.1 ± 0.4%.

`ON=Cc1cc[n+](CCC[n+]2ccc(/C=N/O)cc2)cc1` [Compound 4, trimedoxime, reference compound]: in experiment [2], the “MePOX-HssAChE Reactivation (% ± SD)” value is 51.4 ± 0.9% and 59.5 ± 0.7%. Also, in experiment [3], the “DFP-HssAChE Reactivation (% ± SD)” value is 10.0 ± 0.5% and 2.7 ± 0.3%.

`ON=Cc1cc[n+](C[n+]2ccc(C=NO)cc2)cc1` [Compound 5, methoxime, reference compound]: the “MePOX-HssAChE Reactivation (% ± SD)” value in experiment [2] was 14.2 ± 0.1% and 14.3 ± 0.2%. The “DFP-HssAChE Reactivation (% ± SD)” value in experiment [3] was 2.4 ± 0.1% and 0.6 ± 0.3%.

Turning to `NC(=O)c1cc[n+](CCCC[n+]2ccc(/C=N/O)cc2)cc1` [Compound 6, reference compound], the “MePOX-HssAChE Reactivation (% ± SD)” value in experiment [2] is 54.4 ± 0.9% and 29.1 ± 0.4%. In addition, in experiment [3], the “DFP-HssAChE Reactivation (% ± SD)” value was 3.8 ± 0.1% and 1.4 ± 0.1%.

Turning to `ON=Cc1cc[n+](CCCC[n+]2ccc(/C=N/O)cc2)cc1` [Compound 7, reference compound], in experiment [2], the “MePOX-HssAChE Reactivation (% ± SD)” value is 17.9 ± 0.1% and 21.2 ± 0.4%. For the same compound, in experiment [3], the “DFP-HssAChE Reactivation (% ± SD)” value is 1.4 ± 0.5% and 1.4 ± 0.2%.

Take `ON=Cc1cc[n+](C/C=C/C[n+]2ccc(/C=N/O)cc2)cc1` [Compound 8, reference compound]: the “MePOX-HssAChE Reactivation (% ± SD)” value in experiment [2] is 19.2 ± 0.9% and 22.8 ± 0.2%. Also, in experiment [3], the “DFP-HssAChE Reactivation (% ± SD)” value is 1.1 ± 0.3% and 1.5 ±0.2%.

Take `NC(=O)c1cc[n+](C/C=C/C[n+]2ccc(/C=N/O)cc2)cc1` [Compound 9, (E)-1-(4-Carbamoylpyridinium)-4-(4-hydroxyiminomethylpyridinium)-but-2-ene Dibromide, reference compound]: the “MePOX-HssAChE Reactivation (% ± SD)” value in experiment [2] is 55.9 ± 0.5% and 41.1 ± 0.1%. In addition, the “DFP-HssAChE Reactivation (% ± SD)” value in experiment [3] is 4.4 ± 0.1% and 2.1 ± 0.4%.

Consider `ON=Cc1cc[n+](CCCC[n+]2ccccc2)cc1.[Br-].[Br-]` [Compound 10, 4-Hydroxyiminomethyl-1,1′-(but-1,4-diyl)-bispyridinium dibromide], for which the “MePOX-HssAChE Reactivation (% ± SD)” value in experiment [2] was 14.3 ± 0.8% and 13.2 ± 0.1%. Also, in experiment [3], the “DFP-HssAChE Reactivation (% ± SD)” value is 2.4 ± 0.5% and 0.4 ± 0.3%.

Regarding `ON=Cc1cc[n+](CCCC[n+]2ccccn2)cc1` [Compound 11, 4-Hydroxyiminomethyl-1,1′-(but-1,4-diyl)-1-pyridinium-1′-pyridazinium dibromide], in experiment [1], the “POX-HssAChE Reactivation (% ± SD)” value was 6.3 ± 0.8% and 3.0 ± 0.3%. For the same compound, in experiment [2], the “MePOX-HssAChE Reactivation (% ± SD)” value was 7.1 ± 0.7% and 11.8 ± 0.4%. Besides, the “DFP-HssAChE Reactivation (% ± SD)” value in experiment [3] is 1.2 ± 0.7% and 1.0 ± 0.4%.

With `ON=Cc1cc[n+](CCCC[n+]2cccc3ccccc32)cc1` [Compound 12, 4-Hydroxyiminomethyl-1,1′-(but-1,4-diyl)-1-pyridinium-1′-quinolinium dibromide], the “POX-HssAChE Reactivation (% ± SD)” value in experiment [1] is 0.6 ± 0.5% and 2.0 ± 0.1%. The “MePOX-HssAChE Reactivation (% ± SD)” value in experiment [2] is 2.2 ± 0.5% and 8.6 ± 0.4%. In addition, in experiment [3], the “DFP-HssAChE Reactivation (% ± SD)” value was 0.2 ± 1.0% and 0.8 ± 0.2%.

For the compound `ON=Cc1cc[n+](CCCC[n+]2ccc3ccccc3c2)cc1` [Compound 13, 4-Hydroxyiminomethyl-1,1′-(but-1,4-diyl)-1-pyridinium-1′-isoquinolinium dibromide], the “POX-HssAChE Reactivation (% ± SD)” value in experiment [1] is 9.1 ± 0.3% and 8.7 ± 0.3%. In addition, in experiment [2], the “MePOX-HssAChE Reactivation (% ± SD)” value is 8.2 ± 0.8% and 16.9 ± 0.4%. In experiment [3], the “DFP-HssAChE Reactivation (% ± SD)” value was 0.7 ± 0.2% and 1.1 ± 0.2%.

Take `Cc1cc[n+](CCCC[n+]2ccc(C=NO)cc2)cc1.[Br-].[Br-]` [Compound 14, 4-Hydroxyiminomethyl-4′-methyl-1,1′-(but-1,4-diyl)-bispyridinium dibromide]: the “MePOX-HssAChE Reactivation (% ± SD)” value in experiment [2] was 9.5 ± 0.5% and 9.4 ± 0.2%. The “DFP-HssAChE Reactivation (% ± SD)” value in experiment [3] is 1.1 ± 0.4% and 0.8 ± 0.3%.

With `CC(C)(C)c1cc[n+](CCCC[n+]2ccc(C=NO)cc2)cc1.[Br-].[Br-]` [Compound 15, 4-Hydroxyiminomethyl-4′-(1,1-dimethylethyl)-1,1′-(but-1,4-diyl)-bispyridinium dibromide], the “MePOX-HssAChE Reactivation (% ± SD)” value in experiment [2] was 4.0 ± 0.5% and 7.6 ± 0.5%. For the same compound, the “DFP-HssAChE Reactivation (% ± SD)” value in experiment [3] was 1.7 ± 0.5% and 0.8 ± 0.3%.

For `ON=Cc1cc[n+](CCCC[n+]2ccc(-c3ccccc3)cc2)cc1.[Br-].[Br-]` [Compound 16, 4-Hydroxyiminomethyl-4′-phenyl-1,1′-(but-1,4-diyl)-bispyridinium dibromide], the “POX-HssAChE Reactivation (% ± SD)” value in experiment [1] was 6.9 ± 0.4% and 8.9 ± 0.5%. In experiment [2], the “MePOX-HssAChE Reactivation (% ± SD)” value is 1.7 ± 0.3% and 6.2 ± 0.4%. In experiment [3], the “DFP-HssAChE Reactivation (% ± SD)” value was 0.7 ± 0.2% and 1.0 ± 0.3%.

As to `ON=Cc1cc[n+](CCCC[n+]2ccc(Cc3ccccc3)cc2)cc1.[Br-].[Br-]` [Compound 17, 4-Hydroxyiminomethyl-4′-phenylmethyl-1,1′-(but-1,4-diyl)-bispyridinium dibromide], in experiment [1], the “POX-HssAChE Reactivation (% ± SD)” value was 1.2 ± 0.1% and 4.7 ± 0.3%. In addition, the “MePOX-HssAChE Reactivation (% ± SD)” value in experiment [2] is 0.0 ± 0.1% and 3.8 ± 0.4%. In addition, the “DFP-HssAChE Reactivation (% ± SD)” value in experiment [3] is 0.0 ± 0.5% and 0.8 ± 0.2%.

As to `OCc1cc[n+](CCCC[n+]2ccc(C=NO)cc2)cc1.[Br-].[Br-]` [Compound 18, 4-Hydroxyiminomethyl-4′-hydroxymethyl-1,1′-(but-1,4-diyl)-bispyridinium dibromide], the “MePOX-HssAChE Reactivation (% ± SD)” value in experiment [2] is 6.7 ± 0.3% and 8.1 ± 0.3%. In addition, the “DFP-HssAChE Reactivation (% ± SD)” value in experiment [3] is 3.8 ± 1.0% and 1.4 ± 0.4%.

For `CC(=O)c1cc[n+](CCCC[n+]2ccc(C=NO)cc2)cc1.[Br-].[Br-]` [Compound 19, 4-Hydroxyiminomethyl-4′-methylcarbonyl-1,1′-(but-1,4-diyl)-bispyridinium dibromide], in experiment [1], the “POX-HssAChE Reactivation (% ± SD)” value was 11.9 ± 1.0% and 3.9 ± 0.3%. Besides, in experiment [2], the “MePOX-HssAChE Reactivation (% ± SD)” value is 5.2 ± 0.4% and 7.5 ± 0.1%. Moreover, the “DFP-HssAChE Reactivation (% ± SD)” value in experiment [3] is 1.5 ± 0.3% and 1.0 ± 0.2%.

Take `O=C(O)c1cc[n+](CCCC[n+]2ccc(C=NO)cc2)cc1.[Br-].[Br-]` [Compound 20, 4-Carboxy-4′-hydroxyiminomethyl-1,1′-(but-1,4-diyl)-bispyridinium dibromide]: the “MePOX-HssAChE Reactivation (% ± SD)” value in experiment [2] is 9.5 ± 0.3% and 8.8 ± 0.4%. Moreover, in experiment [3], the “DFP-HssAChE Reactivation (% ± SD)” value was 1.1 ± 0.5% and 0.4 ± 0.1%.

Consider `CCOC(=O)c1cc[n+](CCCC[n+]2ccc(C=NO)cc2)cc1` [Compound 21, 4-Ethylcarboxy-4′-hydroxyiminomethyl-1,1′-(but-1,4-diyl)-bispyridinium dibromide], for which, in experiment [1], the “POX-HssAChE Reactivation (% ± SD)” value was 7.1 ± 0.7% and 4.0 ± 0.6%. Besides, the “MePOX-HssAChE Reactivation (% ± SD)” value in experiment [2] is 3.8 ± 0.4% and 7.2 ± 0.2%. Moreover, the “DFP-HssAChE Reactivation (% ± SD)” value in experiment [3] was 0.8 ± 0.3% and 1.1 ± 0.2%.

With `N#Cc1cc[n+](CCCC[n+]2ccc(C=NO)cc2)cc1` [Compound 22, 4-Carbonitril-4′-hydroxyiminomethyl-1,1′-(but-1,4-diyl)-bispyridinium dibromide], the “MePOX-HssAChE Reactivation (% ± SD)” value in experiment [2] is 11.1 ± 0.1% and 13.8 ± 0.3%. For the same compound, the “DFP-HssAChE Reactivation (% ± SD)” value in experiment [3] was 1.7 ± 0.5% and 0.4 ± 0.2%.

`NC(=NO)c1cc[n+](CCCC[n+]2ccc(C=NO)cc2)cc1.[Br-].[Br-]` [Compound 23, 4-(1-Amino-1-hydroxyiminomethyl)-4′-hydroxyiminomethyl-1,1′-(but-1,4-diyl)-bispyridinium dibromide]: the “MePOX-HssAChE Reactivation (% ± SD)” value in experiment [2] was 21% and 20.2 ± 1.0% and 20.7 ± 0.4%. In addition, the “DFP-HssAChE Reactivation (% ± SD)” value in experiment [3] is 3.1 ± 0.8% and 2.0 ± 0.2%.

Turning to `NC(=O)c1cc[n+](CCCC[n+]2ccc(C=NO)cc2)cc1C(N)=O.[Br-].[Br-]` [Compound 24, 3,4-Dicarbamoyl-4′-hydroxyiminomethyl-1,1′-(but-1,4-diyl)-bispyridinium dibromide], in experiment [1], the “POX-HssAChE Reactivation (% ± SD)” value was 2.0 ± 0.4% and 2.2 ± 0.8%. The “MePOX-HssAChE Reactivation (% ± SD)” value in experiment [2] was 4.2 ± 0.5% and 10.1 ± 0.2%. The “DFP-HssAChE Reactivation (% ± SD)” value in experiment [3] was 0.7 ± 0.4% and 0.7 ± 1.0%.
